Measurements taken from US7714014B2, “Targeting GLI proteins in human cancer by small molecules” (The Regents of the University of California, priority 2005, dated 2010).
“Also recorded” adds a separate entry of the source.

Experiments:
[1] = system: SW480 cells transfected with empty pCDNA3 vector or Gli2 cDNA expression construct; assay: GLI2 over-expression rescue experiment; format: cell-based, human; settings: 5 days
Method: For transient transfection experiments, cells (2×10^5) were plated in six-well plates using growth medium without antibiotics 24 hrs before transfection. Lipofectamine™ 2000 (Invitrogen Life Technologies; Carlsbad, Calif.) was used to mediate transfection using 2.0 μg of cDNA in pCDNA3 vector or 2.0 μg empty pCDNA3 vector as control, according to the manufacturer's protocol. Then the transfected cells were cultured at 37° C. in a humid incubator with 5% CO2 until they were ready for analysis. Gli2 cDNA was kindly provided by Dr. Fritz Aberger at University of Salzburg (Salzburg, Austria). Gli1 and Gli3 cDNA were kindly provided by Dr. Bert Vogelstein and Dr. Kenneth W. Kinzler at the Sidney Kimmel Comprehensive Cancer Center of the Johns Hopkins University (Baltimore, Md.). TAFIII31 cDNA was kindly provided by Dr. Gregory L. Verdine at Harvard University (Cambridge, Mass.).
As described herein, GLI3 seems to activate transcription of Gli1 and Gli2 genes. […] If so, then transfecting a GLI1 and/or GLI2 expression construct into a cell treated with a small molecule compound of the present invention, should lead to at least a partial rescue of the apoptotic effect mediated by the small molecule compound. Thus, to further examine the specificity of the small molecule compound FN1-5, as well as its inhibitory mechanisms, it was tested whether over-expressing GLI2 protein could attenuate the cell killing effect of FN1-5. In this experiment, the colon cancer cell line SW480 was transfected with either empty pCDNA3 vector or with a Gli2 cDNA expression construct. After selection, the transfected cells were re-plated in 6-well plates at same numbers, and then FN1-5 was added into medium at a final concentration of 50 μM.
To further examine the specificity of the small molecule compound FN1-8, as well as its inhibitory mechanisms, we tested whether over-expressing GLI2 protein could attenuate the cell killing effect of FN1-8. The transfection experiment was performed as described above. After 5 days, apoptosis analysis using flow cytometry was performed to quantify the experiment.

[2] = system: primary cultured human mesothelioma cells; assay: Cell survival assay (crystal violet); format: cell-based; settings: for cell killing effect: 50 and 100 μM, 3 days
Method: Fresh cancer tissue and adjacent normal tissue from patients undergoing curative primary resection of their tumors were collected at the time of surgery (IRB approval H8714-15319-040), and immediately snap-frozen in liquid nitrogen. These tissue samples were kept at −170° C. in a liquid nitrogen freezer until further use. Primary tissue cultures were prepared as follows: Fresh cancer tissue was obtained with consent from patients undergoing resection, cut into small pieces (1-2 mm in diameter), and then digested with Collagenase A (Roche Applied Science, Indianapolis, Ind.) at room temperature for 2 hours according to manufacture's protocol. Single cells from the digestion were spun down and the cell pellets were washed twice using RPMI 1640 supplemented with 10% fetal bovine serum, penicillin (100 IU/ml) and streptomycin (100 μg/ml). Then, the cells were resuspended in the same medium and cultured in 6-well plates at 37° C. in a humid incubator with 5% CO2 until they were ready for further treatments.
Typically, the small molecule compounds of the present invention were dissolved in DMSO at a concentration of 30 mM. The small molecule compounds were then tested under cell culture conditions at different concentrations ranging from 0, 10, 30, 50, to 100 uM. To determine cell survival after treatment, the cells were incubated with the small molecule compounds in 6-well plates for about 3 days. After removal of the cell culture medium, 1-ml of 0.5% crystal violet solution (prepared in 20% ethanol and 20% methanol) was added to stain the cells for 5 min. Then the crystal violet solution was rinsed clean with tap water. Cell survival was estimated based on the density of crystal stained plates.
Next, the effect of different small molecule compounds on primary cultured human mesothelioma cells freshly made from tissue samples was examined. The primary cultures were plated in 6-well plates as described herein and incubated with 50 and 100 μM of each compound (FN1-5, FN1-7, FN1-8, and FN3-5; stocks were dissolved in DMSO at 30 mM) for 3 days. […] (FIG. 8).

[3] = system: HT29 (colon cancer); assay: Apoptosis analysis (Annexin V FITC, flow cytometry); format: cell-based, human; settings: for % of apoptotic cells: about 3 days
Method: Apoptosis was analyzed by using an Annexin V FITC Apoptosis Detection Kit (Biosource, Camarillo, Calif.), according to the manufacturer's protocol. After treatment with different small molecule compounds at various concentrations for about 3 days, cells were harvested by trypsinization, stained and immediately analyzed by flow cytometry (FACScan; Decton Dickinson, Franklin Lake, N.J.). Early apoptotic cells with exposed phosphatidylserine but intact cell membranes will bind to Annexin V-FITC, but not propidium iodide (PI). Cells in necrotic or late apoptotic stages will be labeled with both Annexin V-FITC and PI. “% apoptotic cells” or “% apoptosis” refers to the combined early and late apoptotic cells.
Flow cytometry was used to examine apoptosis in colon cancer cell line HT29 after treatment of cells with small molecule compounds FN1-5 and FN1-8. While FN1-5 induced apoptosis in HT29 cells (at 50 μM 35% apoptotic cells were observed; Table 2), no apoptosis was observed after treatment with FN1-8 (Table 3).

[4] = system: Dvl-3, cytosolic β-catenin, Survivin in NSCLC cells H460, A549, and H838; assay: Western blot of canonical Wnt signaling components; format: cell-based, human; settings: 30 μM, 2 days; for Dvl-3 and cytosolic beta-catenin levels (Western blot): H460, A549, H838
Method: (§1) Whole proteins from cell cultures with or without treatments with small molecule compounds (30 μM for 2-3 days) were prepared using standard protocols (Pierce Biotechnology, Rockford, Ill.). Protein concentrations were measured using Bio-Rad Protein Assay reagent. Whole cell lysate protein (5-20 ug) were boiled for 5 min and separated by 10-20% SDS-PAGE. Proteins were transferred to an Immobilon-P membrane (Millipore Corp., Bedford, Mass.) using semi-dry transfer cell (Bio-Rad; Benicia, Calif.). The membranes were blocked with 5% nonfat milk powder and 0.1% Tween 20 in Tris-buffer saline overnight at 4° C. and then incubated with primary antibody for 1 h at room temperature. Membranes were washed in 5% nonfat milk powder and 0.1% Tween 20 in Tris-buffer saline for three 10-min periods. Horseradish peroxidase-conjugated goat anti-rabbit or donkey anti-mouse antibodies were used as secondary antibodies. Proteins were visualized with chemiluminescence luminol reagents (Santa Cruz Bio-technology). Anti-Dvl-3, and anti-Survivin, antibodies were from Santa Cruz Biotechnology (Santa Cruz, Calif.). Anti-Caspase3 antibody was from Oncogene (Cambridge, Mass.). Anti-β-Actin antibody was from Sigrna-Aldrich Corp. (St. Louis, Mo.). Anti-β-catenin antibody was from Transduction Laboratories (Lexington, Ky.). Anti-Cytochrome c antibody was from BD Biosciences (San Diego, Calif.). For detecting alteration of β-catenin cytosolic extracts were prepared and examined as described previously in the publications from our lab.

[5] = system: Dvl-3, cytosolic β-catenin, Survivin in colon cancer cells SW480, HT29, and CaCO2; assay: Western blot of canonical Wnt signaling components; format: cell-based, human; settings: 30 μM, 2 days; for Dvl-3 and cytosolic beta-catenin levels (Western blot): SW480, HT29, CaCO2
Method: as §1

O=C(NCCc1ccc(O)cc1)C1C(c2ccccc2)=NN(c2ccccc2)C1c1ccccc1 (stereo not shown) [FN1-8, N-(2-(4-Hydroxyphenyl)ethyl)-1,3,5-triphenyl-4,5-dihydro-pyrazole-4-carboxyamide]
apoptotic cells ([1]; SW480 transfected with empty vector): 48.1%
apoptotic cells ([1]; SW480 transfected with the Gli2 expression construct): 27.7%
cell killing effect [2]: Dramatic cell killing effect
cell killing potency compared with FN1-5 ([2]; same dose): more potent than FN1-5
% of apoptotic cells ([3]; HT29, 30 μM): 3.1%
% of apoptotic cells ([3]; HT29, 50 μM): 5.3%
apoptosis induction ([3]; HT29, flow cytometry): no apoptosis
Survivin level (Western blot) [4]: down-regulated
Dvl-3 and cytosolic beta-catenin levels (Western blot) [4]: dramatic down-regulation; also recorded: suppress canonical Wnt signaling
Survivin level (Western blot) [5]: down-regulated
Dvl-3 and cytosolic β-catenin levels (Western blot) ([5]; HT29 cells only): no down-regulation
Dvl-3 and cytosolic beta-catenin levels (Western blot) [5]: dramatic down-regulation; also recorded: suppress canonical Wnt signaling

O=C(NCCCCCO)C1C(c2ccccc2)=NN(c2ccccc2)C1c1ccccc1 (stereo not shown) [FN1-5, N-(5-Hydroxypentyl)-1,3,5-triphenyl-4,5-dihydro-pyrazole-4-carboxyamide]
cell killing, Gli2-transfected versus empty vector cells ([1]; 50 μM): kill less cells transfected with Gli2 than those with empty vector
cell killing effect [2]: Dramatic cell killing effect
% of apoptotic cells ([3]; HT29, 10 μM): 5.8%
% of apoptotic cells ([3]; HT29, 30 μM): 15.5%
% of apoptotic cells ([3]; HT29, 50 μM): 32.9%
Dvl-3 and cytosolic beta-catenin levels (Western blot) [4]: suppress canonical Wnt signaling
Dvl-3 and cytosolic beta-catenin levels (Western blot) [5]: suppress canonical Wnt signaling
